Reference: PMC9002393, “Phytochemical Study of Eryngium cymosum F. Delaroche and the Inhibitory Capacity of Its Main Compounds on Two Glucose-Producing Pathway Enzymes” (Plants, 2022)

Experiments:
[1] = molecular target: T1, fructose-1,6-bisphosphatase (FBPase) (Rattus norvegicus, UniProt P19112); experiment: Inhibition assay of fructose-1,6-bisphosphatase (FBPase); assay type: biochemical; settings: rat liver cytosolic supernatant; for IC50: mean ± SEM of two assays in duplicate
T1 construct: Enzymatic activity started by adding rat liver cytosolic supernatant diluted 9:1; from tissue; host or cells: rat liver cytosolic supernatant
T1 sequence (P19112 2-363 limits assumed): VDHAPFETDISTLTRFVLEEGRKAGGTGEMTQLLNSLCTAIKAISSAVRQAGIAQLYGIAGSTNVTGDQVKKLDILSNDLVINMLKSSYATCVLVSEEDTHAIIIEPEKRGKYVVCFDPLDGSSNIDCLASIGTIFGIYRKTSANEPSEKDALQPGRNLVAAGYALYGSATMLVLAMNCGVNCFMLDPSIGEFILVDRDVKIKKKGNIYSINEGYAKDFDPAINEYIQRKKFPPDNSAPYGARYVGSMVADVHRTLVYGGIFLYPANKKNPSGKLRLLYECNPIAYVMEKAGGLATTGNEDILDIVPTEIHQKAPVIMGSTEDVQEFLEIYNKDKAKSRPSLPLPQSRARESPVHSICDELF
Procedure: Buffer (5 μM EDTA, 5 mM MgCl2, 50 mM Tris-HCl, pH 7.2) enriched with 0.1 mM of fructose-1,6-bisphosphate was added and incubated for 5 min with different concentrations of inhibitor or samples (adenosine 5′-monophosphate or compounds) in reaction mixtures of 1 mL. Enzymatic activity started by adding rat liver cytosolic supernatant diluted 9:1 and, 15 min later, ended with the addition of a color reagent previously prepared by mixing 1 volume of 7.5% ammonium molybdate and 0.17% TWEEN 20 with 4 volumes of stock solution (0.12% malachite green in 5 volumes of water with 1 volume of H2SO4). Finally, the reaction mixtures were incubated for 10 min at room temperature and measured at 630 nm.

α-amylase = molecular target: α-amylase; design: method as in PMID 24825096; settings: cited from earlier work
[2] = molecular target: T2, glucose-6-phosphatase (G6Pase) (Rattus norvegicus, UniProt P43428); experiment: Inhibition assay of glucose-6-phosphatase (G6Pase); assay type: biochemical; settings: rat liver microsomal fractions
T2 sequence (P43428 1-357): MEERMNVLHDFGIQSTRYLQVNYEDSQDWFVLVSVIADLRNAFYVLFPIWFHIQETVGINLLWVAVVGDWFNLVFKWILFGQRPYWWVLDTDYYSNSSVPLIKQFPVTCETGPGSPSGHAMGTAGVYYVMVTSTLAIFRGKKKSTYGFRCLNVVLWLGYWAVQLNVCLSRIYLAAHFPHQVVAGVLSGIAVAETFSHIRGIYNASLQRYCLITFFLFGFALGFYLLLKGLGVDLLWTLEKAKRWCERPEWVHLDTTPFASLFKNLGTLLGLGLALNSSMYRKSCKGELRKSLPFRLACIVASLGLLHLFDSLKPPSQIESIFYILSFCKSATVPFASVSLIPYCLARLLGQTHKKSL
Procedure: Rat liver microsomal fractions isolated through differential centrifugation were diluted 1:1 in buffer (40 mM imidazole, 250 mM sucrose, pH 7) and added to reaction mixtures, containing buffer and different concentrations of inhibitor samples (chlorogenic acid or compounds). Enzymatic activity started by adding 20 mM of glucose-6-phosphate (G6P). Next, the mixtures were incubated at 22 °C for 20 min and ended with the addition of 900 μL of a solution of 0.42% ammonium molybdate in 1 N H2SO4, 10% SDS, and 10% ascorbic acid. Finally, they were incubated at 45 °C for 20 min and measured at 830 nm.

db/db mouse = tested on: db/db mouse; design: method as in PMID 16644902; settings: treated for 5 weeks; cited from earlier work
α-glucosidase = molecular target: α-glucosidase; design: method as in PMID 24825096; settings: cited from earlier work
[3] = tested on: STZ-induced diabetic rats; design: method as in PMID 20506690; settings: oral administration for 45 days, 100 mg/kg bw; cited from earlier work
[4] = tested on: high-fat diet model-STZ-induced rats; design: method as in doi:10.1016/j.bionut.2014.03.006; settings: consumption for 30 days; cited from earlier work
[5] = tested on: STZ-induced diabetic rats; design: method as in PMID 21433280; settings: 4 days of ad libitum consumption; cited from earlier work
ALR-2 = tested on: ALR-2; design: method as in earlier work; settings: read-out: ALR2 IC50; cited from earlier work
ALR-1 = tested on: ALR-1; design: method as in earlier work; settings: read-out: ALR1 IC50; cited from earlier work

Nc1ncnc2c1ncn2[C@@H]1O[C@H](COP(=O)(O)O)[C@@H](O)[C@H]1O [Adenosine 5′-monophosphate, reference compound]
IC50 [1]: 48.7 µM

O=C(O)/C=C/c1ccc(O)c(O)c1 [Caffeic acid (4), caffeic acid]
α-amylase IC50 (α-amylase): 3.68 µg/mL
inhibition over G6Pase (in words) [2]: modest inhibition
blood insulin levels (db/db mouse): blood insulin levels increased
plasma glucose levels (db/db mouse): plasma glucose levels decreased
inhibition over FBPase (in words) [1]: no inhibition
α-glucosidase IC50 (α-glucosidase): 4.98 µg/mL

O=C(/C=C/c1ccc(O)cc1)OC[C@H]1O[C@@H](Oc2c(-c3ccc(O)cc3)oc3cc(O)cc(O)c3c2=O)[C@H](OC(=O)/C=C/c2ccc(O)cc2)[C@@H](O)[C@@H]1O [kaempferol-3-O-(2,6-di-O-trans-ρ-coumaryl)-β-D-glucopyranoside]
inhibition over G6Pase (in words) [2]: important inhibition
inhibition over FBPase (in words) [1]: important inhibition
IC50 [1]: 70.9 µM

O=C(O)c1ccc(O)c(O)c1 [protocatechuic acid (3), protocatechuic acid]
plasma glucose [3]: decrease in plasma glucose
plasma insulin [3]: increase in plasma insulin

O=C(/C=C/c1ccc(O)c(O)c1)O[C@H](Cc1ccc(O)c(O)c1)C(=O)O [rosmarinic acid (2), rosmarinic acid]
blood glucose levels [4]: decrease in blood glucose levels
plasma insulin [4]: increase in plasma insulin
blood glucose levels [5]: blood glucose levels were decreased

O=C1NC(=O)[C@@]2(CCOc3ccc(F)cc32)N1 [sorbinil]
IC50 (ALR-2): 3.14 ± 0.02 µM

CCCC(CCC)C(=O)O [valproic acid]
IC50 (ALR-1): 57.4 ± 0.89 µM
